Experimental data reported in patent US8318731B2, “Pyrrolopyrimidines” (Janssen Pharmaceutica NV, priority 2007, dated 2012).

Experiments:
PLK4 (h) = target: T1, PLK4 (h) (Homo sapiens, UniProt O00444); assay: PLK-4 human kinase scintillation proximity assay (SPA); assay type: biochemical; settings: 1 μM ATP, 60 minutes at r.t., read-out: PLK4 pIC50 (converted)
T1 sequence (O00444 1-970): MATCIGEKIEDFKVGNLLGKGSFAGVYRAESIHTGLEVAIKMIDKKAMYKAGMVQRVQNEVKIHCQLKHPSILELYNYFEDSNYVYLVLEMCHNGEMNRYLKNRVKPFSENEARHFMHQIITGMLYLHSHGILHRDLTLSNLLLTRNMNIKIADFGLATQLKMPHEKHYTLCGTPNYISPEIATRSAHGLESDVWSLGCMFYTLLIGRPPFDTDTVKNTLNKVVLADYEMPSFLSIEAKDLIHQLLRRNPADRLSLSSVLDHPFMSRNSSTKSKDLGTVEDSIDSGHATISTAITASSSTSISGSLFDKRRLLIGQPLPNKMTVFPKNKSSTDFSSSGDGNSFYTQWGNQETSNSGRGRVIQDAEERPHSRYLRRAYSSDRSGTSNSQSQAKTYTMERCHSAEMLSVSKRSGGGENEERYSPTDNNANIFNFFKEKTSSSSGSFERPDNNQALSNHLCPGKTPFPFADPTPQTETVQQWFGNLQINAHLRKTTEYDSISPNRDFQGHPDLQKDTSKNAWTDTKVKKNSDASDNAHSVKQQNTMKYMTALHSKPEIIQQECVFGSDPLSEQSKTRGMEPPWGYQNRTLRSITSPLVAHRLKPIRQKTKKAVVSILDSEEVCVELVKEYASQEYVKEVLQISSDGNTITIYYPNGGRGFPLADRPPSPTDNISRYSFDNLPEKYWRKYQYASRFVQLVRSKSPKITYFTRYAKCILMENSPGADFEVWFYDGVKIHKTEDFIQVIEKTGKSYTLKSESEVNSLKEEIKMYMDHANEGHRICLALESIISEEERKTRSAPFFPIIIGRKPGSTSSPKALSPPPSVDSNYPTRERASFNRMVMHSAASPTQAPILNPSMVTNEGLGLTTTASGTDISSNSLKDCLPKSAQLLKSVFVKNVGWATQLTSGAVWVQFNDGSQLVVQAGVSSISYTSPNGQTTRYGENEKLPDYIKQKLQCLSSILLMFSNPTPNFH
Summary of the method: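 Scintillation proximity read-out: EDTA-stopped reactions were captured on streptavidin SPA beads after PLK4 (19 μg/ml) had phosphorylated 10 μM biotin-peptide for 60 min at room temperature, using 1 μM ATP spiked with 2 nM 33P-ATP in pH 8.0 HEPES buffer.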

HCT-116 = assay: Cellular proliferation assay (Alamar blue), HCT-116; assay type: cell-based; settings: Homo sapiens; HCT-116 cells; 10% FCS; 72 h with compound; Alamar blue 4 h; read-out: pIC50 HCT-116 (converted)
Summary of the method: (§1)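 Resazurin-based Alamar blue fluorescence (544/590 nm) measured viable cell number after 72 h compound exposure, following 24 h compound-free seeding, with 10% FCS, 37° C, 5% CO2. Dye incubation lasted 24 h for PC3 and A2780, 6 h for U87-MG, 4 h for HCT-116; results relative to untreated controls.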

H1299 = assay: Cellular proliferation assay (Alamar blue), H1299; assay type: cell-based; settings: Homo sapiens, NCI-H1299, H1299 cells; 10% FCS; 72 h with compound; Alamar blue 4 h; read-out: pIC50 H1299 (converted)
Summary of the method: (§2)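 Viable cell number is determined by Alamar blue conversion after cells are treated with compound for 72 hours, following 24 hours of growth without compound in 10% FCS. The effect is calculated against control cells.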

U87-MG = assay: Cellular proliferation assay (Alamar blue), U87-MG; assay type: cell-based; settings: Homo sapiens, U-87 MG; U87-MG cells; 10% FCS; 72 h with compound; Alamar blue 6 h; read-out: pIC50 U87MG (converted)
Summary of the method: as §1

A2780 = assay: Cellular proliferation assay (Alamar blue), A2780; assay type: cell-based; settings: Homo sapiens, A2780, A2780 cells; 10% FCS; 72 h with compound; Alamar blue 24 h; read-out: pIC50 A2780 (converted)
Summary of the method: as §1

PC3 = assay: Cellular proliferation assay (Alamar blue), PC3; assay type: cell-based; settings: Homo sapiens, PC-3, PC-3 cells; 10% FCS; 72 h with compound; Alamar blue 24 h; read-out: pIC50 PC-3 (converted)
Summary of the method: as §1

MDA-MB-231 = assay: Cellular proliferation assay (Alamar blue), MDA-MB-231; assay type: cell-based; settings: Homo sapiens, MDA-MB-231, MDA-MB-231 cells; 10% FCS; 72 h with compound; Alamar blue 24 h; read-out: pIC50 MDA/MB231 (converted)
Summary of the method: as §2

IC50 (PLK4 (h)) [µM]	IC50 (HCT-116) [µM]	IC50 (H1299) [µM]	IC50 (U87-MG) [µM]	IC50 (A2780) [µM]	IC50 (PC3) [µM]	IC50 (MDA-MB-231) [µM]	SMILES
3.16	> 10	> 10	> 10	> 10	> 10	> 10	CN1CCN(C)C(=O)CCCCOc2cc(ccc2Cl)Nc2ncnc3[nH]cc(c23)C1 [Compound 49]
0.158	2	2	2	1.58	5.01	7.94	CN1CCCN(C)C(=O)COc2cc(ccc2N2CCOCC2)Nc2ncnc3[nH]cc(c23)C1 [Compound 85]
> 10	> 10	> 10	> 10	> 10	> 10	> 10	COc1ccc2cc1OCC(=O)N[C@@H](C)CN(C)CCCc1c[nH]c3ncnc(c13)N2 [Compound 28]
0.0631	1.58	6.31	3.16	1.26	5.01	5.01	CN1CCCN(C)C(=O)COc2cc(ccc2OCCSc2nccn2C)Nc2ncnc3[nH]cc(c23)C1 [Compound 143]
1.26	> 10	> 10	> 10	> 10	> 10	> 10	CN1CCN(C)C(=O)CCCOc2cc(ccc2N2CCOCC2)Nc2ncnc3[nH]cc(c23)C1 [Compound 40]
1.58	> 10	> 10	> 10	> 10	> 10	> 10	COc1ccc2cc1OCC(=O)N[C@H](CO)CN(C)CCCc1c[nH]c3ncnc(c13)N2 [Compound 3]
0.158	1	3.16	1	1	1.58	1.58	COCCN(CCOc1ccc2cc1OCC(=O)N(C)CCCN(C)Cc1c[nH]c3ncnc(c13)N2)C(C)C [Compound 140]
0.0631	> 10	> 10	> 10	6.31	> 10	> 10	CN1CCCN(C)C(=O)COc2cc(ccc2OCCO)Nc2ncnc3[nH]cc(c23)C1 [Compound 80]
0.0631	0.0794	0.2	2.51	0.0631	2.51	3.16	CN1CCCCN(C)C(=O)COc2cc(ccc2OCC(=O)Nc2ccc(Cl)cc2)Nc2ncnc3[nH]cc(c23)C1 [Compound 133]
0.0794	2	3.98	2.51	1	6.31	5.01	COc1cc(NC(=O)COc2ccc3cc2OCC(=O)N(C)CCCN(C)Cc2c[nH]c4ncnc(c24)N3)cc(OC)c1OC [Compound 71]
0.631	7.94	10	> 10	> 10	> 10	> 10	CN1CCN(C)C(=O)CCc2cccc(c2)Nc2ncnc3[nH]cc(c23)C1 [Compound 20]
1	> 10	> 10	> 10	> 10	> 10	> 10	COc1ccc2cc1CCC(=O)N(C)CCN(C)Cc1c[nH]c3ncnc(c13)N2 [Compound 46]
2	> 10	> 10	> 10	> 10	> 10	> 10	O=C1CCCCOc2cc(ccc2Cl)Nc2ncnc3[nH]cc(c23)CN2CCN1CC2 [Compound 104]
0.631	> 10	> 10	> 10	> 10	> 10	> 10	COc1ccc2cc1OCC(=O)N(C)CCCN(Cc1ccncc1)Cc1c[nH]c3ncnc(c13)N2 [Compound 62]
> 10	> 10	> 10	> 10	> 10	> 10	> 10	COc1ccc2cc1CN1CCCC(C1)C(=O)N(C)CCCc1c[nH]c3ncnc(c13)N2 (stereo not shown) [Compound 35]
0.0251	0.631	1.58	3.16	0.398	6.31	6.31	CN1CCCN(C)C(=O)COc2cc(ccc2OCC(=O)NC2CCCCC2)Nc2ncnc3[nH]cc(c23)C1 [Compound 118]
0.0794	1.26	2	1.58	2	3.16	7.94	CN1CCCN(C)C(=O)COc2cc(ccc2N2CCCC2)Nc2ncnc3[nH]cc(c23)C1 [Compound 82]
1.26	2	3.16	2.51	2	6.31	10	COc1ccc2cc1OCCNC(=O)CN(C)Cc1c[nH]c3ncnc(c13)N2 [Compound 22]
> 10	> 10	> 10	> 10	> 10	> 10	> 10	COc1cc2cc(c1OC)OCCCCC(=O)N(C)CCN(C)Cc1c[nH]c3ncnc(c13)N2 [Compound 87]
> 10	> 10	> 10	> 10	> 10	> 10	> 10	O=C1CCCCOc2cccc(c2)Nc2ncnc3[nH]cc(c23)CN2CCN1CC2 [Compound 86]
3.16	> 10	> 10	> 10	> 10	> 10	> 10	CN1CCN(C)C(=O)CCCCOc2cccc(c2)Nc2ncnc3[nH]cc(c23)C1 [Compound 2]
0.0501	0.0794	0.2	0.794	0.0631	1	1.26	COc1ccc(NC(=O)COc2ccc3cc2OCC(=O)N(C)CCCN(C)Cc2c[nH]c4ncnc(c24)N3)cc1 [Compound 129]
> 10	> 10	> 10	> 10	> 10	> 10	> 10	COc1cc2cc(c1OC)CN(C(C)C)CC(=O)N(C)CCCc1c[nH]c3ncnc(c13)N2 [Compound 123]
1.58	> 10	> 10	> 10	> 10	> 10	> 10	CN1CCCN(C)C(=O)CCCOc2cc(ccc2N2CCOCC2)Nc2ncnc3[nH]cc(c23)C1 [Compound 44]
0.501	1.26	1.58	1.58	1.58	3.98	5.01	COc1ccc2cc1OCCCNC(=O)CN(C)Cc1c[nH]c3ncnc(c13)N2 [Compound 6]
